Test results: patent publication US6348614B1 (priority 1996, dated 2002)

These compounds were tested on P.infestans (A2 mating type, resistant to metalaxyl). Details: Potato, 500 ppm, 6 days after inoculation.
Format: in vivo, Phytophthora infestans
CCCCCCCOC(=O)CC(C)NC(=O)c1ccc(OC)cc1 (stereo not shown) [compound 12, D,L N-4-methoxybenzoyl-3-aminobutyric acid heptyl ester] was tested, and the “Control efficacy (%) 6d” value was 89%. With CCCCCCCOC(=O)CC(C)NC(=O)c1cc(C)cc(C)c1 (stereo not shown) [compound 13, D,L N-3,5-dimethylbezoyl-3-aminobutyric acid heptyl ester] the “Control efficacy (%) 6d” value was 84%. With CCCCCCCOC(=O)CC(C)NC(=O)c1c(F)cccc1F (stereo not shown) [compound 14, D,L N-2,6-difluorobenzoyl-3-aminobutyric acid heptyl ester] the “Control efficacy (%) 6d” value was 79%. For CCCCCCCOC(=O)CC(C)NC(=O)c1ccc(C(C)(C)C)cc1 (stereo not shown) [compound 15, D,L N-4-tertbutylbenzoyl-3-aminobutyric acid heptyl ester], the “Control efficacy (%) 6d” value was 79%. In the case of CCCCC(C)OC(=O)CC(C)NS(=O)(=O)c1ccc(C)cc1 (stereo not shown) [compound 16, D,L N-4-methylbenzenesulfonyl-3-aminobutyric acid i-methylpentyl ester], the “Control efficacy (%) 6d” value is reported as 79%. With CC(CC(=O)OCCCc1ccccc1)NS(=O)(=O)c1ccccc1 (stereo not shown) [compound 17, D,L N-benzenesulfonyl-3-aminobutyric acid 3-phenylpropyl ester] the “Control efficacy (%) 6d” value was 76%. With CCCCC(C)OC(=O)CC(C)NC(=O)c1ccc(Cl)cc1 (stereo not shown) [compound 18, D,L N-4-cholrobenzoyl-3-aminobutyric acid 1-methylpentyl ester] the “Control efficacy (%) 6d” value was 76%. For CC(CC(=O)OCCC(Cl)(Cl)Cl)NS(=O)(=O)c1ccccc1 (stereo not shown) [compound 19, D,L N-benzenesulfonyl-3-aminobutyric acid 2-(trichloromethyl)ethyl ester], the “Control efficacy (%) 6d” value was 75%. CCC(C)OC(=O)CC(C)NS(=O)(=O)c1ccc(C)cc1 (stereo not shown) [compound 20, D,L N-4-methylbenzenesulfonyl-3-aminobutyric 1-methylpropyll ester] was tested, and the “Control efficacy (%) 6d” value was 75%. In the case of CCCC(C)OC(=O)CC(C)NC(=O)c1ccc(C)c(C)c1 (stereo not shown) [compound 21, D,L N-3,4-dimethylbezoyl-3-aminobutyric acid 1-methylbutyl ester], the “Control efficacy (%) 6d” value is reported as 73%. For CCCCCCCOC(=O)CC(C)NC(=O)c1cccc(C)c1 (stereo not shown) [compound 22, D,L N-3-methylbezoyl-3-aminobutyric acid heptyl ester], the “Control efficacy (%) 6d” value was 70%. For CCCCCCCCOC(=O)CC(C)NC(=O)c1ccc(-c2cccs2)cc1 (stereo not shown) [compound 48, D,L N-4-2-thiophenebenzoyl-3-aminobutyric acid octyl ester], the “Control efficacy (%) 6d” value was 82%. CCCCC(C)OC(=O)CC(C)NC(=O)c1ccc(-c2cccs2)cc1 (stereo not shown) [compound 49, D,L N-4-2-thiophenebenzoyl-3-aminobutyric acid 1-methylpentyl ester] was tested, and the “Control efficacy (%) 6d” value was 75%. For CCCCC(C)OC(=O)CC(C)NS(=O)(=O)c1ccc(Cl)cc1 (stereo not shown) [compound 50, D,L N-4-chlorobenzensulfonyl-3-aminobutyric acid 1-methylpentyl ester], the “Control efficacy (%) 6d” value was 77%. CC(CC(=O)OCCCc1ccccc1)NS(=O)(=O)c1ccccc1 (stereo not shown) [compound 51, D,L N-benzensulphonyl-3-aminobutyric acid 3-phenylpropyl ester] was tested, and the “Control efficacy (%) 6d” value was 76%. With CCCCC(C)OC(=O)CC(C)NC(=O)c1ccccc1NC (stereo not shown) [compound 52, D,L N-2-methylaminobenzoyl-3-aminobutyric acid 1-methylpentyl ester] the “Control efficacy (%) 6d” value was 74%.
